The first experiment deals with human Nav1.7 (Homo sapiens, UniProt Q15858). Briefly: FLIPR sodium dye assay (CoroNa Green AM Na+ dye, primary fluorescence assay) in recombinant Nav1.7/HEK293 cells. The experiment is classed as cell-based.
Chain of human Nav1.7 (Q15858 1-1977 isoform Q15858-3): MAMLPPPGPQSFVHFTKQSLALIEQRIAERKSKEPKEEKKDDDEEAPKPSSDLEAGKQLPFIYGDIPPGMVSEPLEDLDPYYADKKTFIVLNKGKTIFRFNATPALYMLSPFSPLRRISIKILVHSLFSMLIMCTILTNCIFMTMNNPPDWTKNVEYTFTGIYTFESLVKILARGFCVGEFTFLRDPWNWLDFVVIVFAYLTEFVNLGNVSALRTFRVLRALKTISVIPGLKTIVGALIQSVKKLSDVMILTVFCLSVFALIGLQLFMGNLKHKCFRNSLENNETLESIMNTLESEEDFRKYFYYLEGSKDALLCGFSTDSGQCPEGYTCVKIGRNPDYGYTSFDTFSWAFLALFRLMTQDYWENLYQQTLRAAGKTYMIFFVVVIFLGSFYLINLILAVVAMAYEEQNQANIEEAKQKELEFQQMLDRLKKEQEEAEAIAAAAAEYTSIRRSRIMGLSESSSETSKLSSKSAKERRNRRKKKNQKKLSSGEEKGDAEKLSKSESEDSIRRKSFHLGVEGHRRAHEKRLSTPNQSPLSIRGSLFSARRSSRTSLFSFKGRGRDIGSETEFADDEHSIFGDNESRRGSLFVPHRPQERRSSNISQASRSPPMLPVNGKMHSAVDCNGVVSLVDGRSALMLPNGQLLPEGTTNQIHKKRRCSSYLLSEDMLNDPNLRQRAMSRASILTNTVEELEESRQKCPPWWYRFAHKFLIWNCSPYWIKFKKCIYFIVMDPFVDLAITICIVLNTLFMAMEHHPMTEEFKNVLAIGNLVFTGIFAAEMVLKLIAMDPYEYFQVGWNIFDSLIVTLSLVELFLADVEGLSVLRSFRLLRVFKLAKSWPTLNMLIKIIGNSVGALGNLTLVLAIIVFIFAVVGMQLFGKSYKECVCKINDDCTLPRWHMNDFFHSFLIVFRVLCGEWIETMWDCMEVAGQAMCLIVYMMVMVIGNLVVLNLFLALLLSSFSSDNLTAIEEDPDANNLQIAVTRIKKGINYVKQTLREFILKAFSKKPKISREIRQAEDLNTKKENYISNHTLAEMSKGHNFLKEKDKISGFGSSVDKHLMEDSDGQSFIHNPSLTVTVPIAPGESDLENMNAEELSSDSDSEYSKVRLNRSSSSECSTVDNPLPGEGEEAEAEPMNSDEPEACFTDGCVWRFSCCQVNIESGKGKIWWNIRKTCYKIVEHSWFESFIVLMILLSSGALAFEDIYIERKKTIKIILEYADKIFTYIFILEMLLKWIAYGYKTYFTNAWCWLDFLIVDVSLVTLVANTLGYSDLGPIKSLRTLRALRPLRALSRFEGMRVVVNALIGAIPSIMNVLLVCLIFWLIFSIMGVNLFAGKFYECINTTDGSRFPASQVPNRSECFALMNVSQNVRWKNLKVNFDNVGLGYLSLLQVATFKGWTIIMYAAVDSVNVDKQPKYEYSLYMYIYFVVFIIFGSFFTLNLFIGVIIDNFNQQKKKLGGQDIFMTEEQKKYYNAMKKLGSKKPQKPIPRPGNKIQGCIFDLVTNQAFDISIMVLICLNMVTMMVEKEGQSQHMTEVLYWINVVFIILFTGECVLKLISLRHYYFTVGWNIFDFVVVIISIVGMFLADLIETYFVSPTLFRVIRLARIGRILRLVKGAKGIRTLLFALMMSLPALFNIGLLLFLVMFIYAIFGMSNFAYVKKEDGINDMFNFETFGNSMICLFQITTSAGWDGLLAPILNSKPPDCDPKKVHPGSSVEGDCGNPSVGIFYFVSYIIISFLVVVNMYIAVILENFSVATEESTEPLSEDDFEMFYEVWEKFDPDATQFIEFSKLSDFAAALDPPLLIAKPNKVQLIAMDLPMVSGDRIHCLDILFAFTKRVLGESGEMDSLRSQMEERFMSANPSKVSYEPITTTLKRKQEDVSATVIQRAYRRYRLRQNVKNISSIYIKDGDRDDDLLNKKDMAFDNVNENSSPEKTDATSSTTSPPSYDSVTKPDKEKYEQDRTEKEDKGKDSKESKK
Details: not given
In general, IC50 refers to the midpoint of a concentration-inhibition curve. Take `NC(=O)c1cc(N[C@@H]2CCNC2=O)nc(-c2ccc(Oc3ccc(C(F)(F)F)cn3)cc2)n1` [compound 149, (R)-6-((2-oxopyrrolidin-3-yl)amino)-2-(4-((5-(trifluoromethyl)pyridin-2-yl)oxy)phenyl)pyrimidine-4-carboxamide]: the IC50 came out at 0.32 µM.

The experiment is the same for the next values; noted with them: Table 6; CoroNa Green AM Na+ dye primary fluorescence assay; read-out: Nav1.7 Activity (μM) FLIPR assay IC50.
Consider `O=C(NCCN1CCCC1)c1cc(N[C@H]2CCNC2=O)nc(-c2ccc(Oc3ccc(C(F)(F)F)cn3)cc2)n1` [compound 137, (S)-6-((2-oxopyrrolidin-3-yl)amino)-N-(2-(pyrrolidin-1-yl)ethyl)-2-(4-((5-(trifluoromethyl)pyridin-2-yl)oxy)phenyl)pyrimidine-4-carboxamide], for which the IC50 stood at 4.17 µM.
Regarding `NC(=O)c1cc(N[C@H]2CCNC2=O)nc(C2=C[C@H]3CC[C@@H](C2)N3Cc2ccc(F)cc2)n1` [compound 138, 2-((1R,5S)-8-(4-fluorobenzyl)-8-azabicyclo[3.2.1]oct-2-en-3-yl)-6-(((S)-2-oxopyrrolidin-3-yl)amino)pyrimidine-4-carboxamide], the 50% inhibitory concentration (IC50) was more than 20 µM.
As to `NC(=O)c1cc(N[C@H]2CCNC2=O)nc(N2CC3CC2CN3Cc2ccc(F)cc2)n1` (stereo partly drawn) [compound 139, 2-(5-(4-fluorobenzyl)-2,5-diazabicyclo[2.2.1]heptan-2-yl)-6-(((S)-2-oxopyrrolidin-3-yl)amino)pyrimidine-4-carboxamide], the IC50 was more than 20 µM.
Regarding `NC(=O)c1cc(N[C@H]2CCNC2=O)nc(-c2ccc(Oc3cnc(C(F)(F)F)cn3)cc2)n1` [compound 141, (S)-6-((2-oxopyrrolidin-3-yl)amino)-2-(4-((5-(trifluoromethyl)pyrazin-2-yl)oxy)phenyl)pyrimidine-4-carboxamide], the IC50 was determined as 0.74 µM.
Consider `NC(=O)c1cc(N[C@H]2CCNC2=O)nc(-c2ccc(Oc3ccc(F)cc3)c(CN3CCCCC3)c2)n1` [compound 143, (S)-2-(4-(4-fluorophenoxy)-3-(piperidin-1-ylmethyl)phenyl)-6-((2-oxopyrrolidin-3-yl)amino)pyrimidine-4-carboxamide], for which the IC50 came to 1.3 µM.
Still for that read-out and setting: the same measure for `NC(=O)c1cc(N[C@H]2CCNC2=O)nc(-c2ccc(Oc3ccc(OCC(F)(F)F)cn3)cc2)n1` [compound 144, (S)-6-((2-oxopyrrolidin-3-yl)amino)-2-(4-((5-(2,2,2-trifluoroethoxy)pyridin-2-yl)oxy)phenyl)pyrimidine-4-carboxamide]: 1.18 µM; for `NC(=O)c1cc(N[C@H]2CCNC2=O)nc(-c2ccc(Oc3ccc(COCC(F)(F)F)cn3)cc2)n1` [compound 145, (S)-6-((2-oxopyrrolidin-3-yl)amino)-2-(4-((5-((2,2,2-trifluoroethoxy)methyl)pyridin-2-yl)oxy)phenyl)pyrimidine-4-carboxamide]: 1.38 µM; for `C[C@H](Oc1cc(C(N)=O)nc(-c2ccc(Oc3ccc(C(F)(F)F)cn3)cc2)n1)C(=O)NCCN1CCCC1` [compound 147, (S)-6-((1-oxo-1-((2-(pyrrolidin-1-yl)ethyl)amino)propan-2-yl)oxy)-2-(4-((5-(trifluoromethyl)pyridin-2-yl)oxy)phenyl)pyrimidine-4-carboxamide]: 0.54 µM.
The same measure, in the same setting: the same measure for `NC(=O)c1cc(N[C@H]2CCNC2=O)nc(-c2ccc(Oc3ncc(OCC(F)(F)F)cn3)cc2)n1` [compound 148, (S)-6-((2-oxopyrrolidin-3-yl)amino)-2-(4-((5-(2,2,2-trifluoroethoxy)pyrimidin-2-yl)oxy)phenyl)pyrimidine-4-carboxamide]: more than 20 µM.
As for `NC(=O)c1cc(N[C@H]2CCNC2=O)nc(N2CC(Oc3ccc(C(F)(F)F)cn3)C2)n1` [compound 150, (S)-6-((2-oxopyrrolidin-3-yl)amino)-2-(3-((5-(trifluoromethyl)pyridin-2-yl)oxy)azetidin-1-yl)pyrimidine-4-carboxamide], the IC50 was 0.95 µM.
For `NC(=O)c1cc(N[C@H]2CCNC2=O)nc(-c2ccc(Oc3cnc(OCC(F)(F)F)cn3)cc2)n1` [compound 151, (S)-6-((2-oxopyrrolidin-3-yl)amino)-2-(4-((5-(2,2,2-trifluoroethoxy)pyrazin-2-yl)oxy)phenyl)pyrimidine-4-carboxamide], the IC50 amounted to 0.35 µM.
As to `NC(=O)c1cc(N[C@H]2CCNC2=O)nc(-c2ccc(Oc3ccc(C(F)(F)F)nn3)cc2)n1` [compound 152, (S)-6-((2-oxopyrrolidin-3-yl)amino)-2-(4-((6-(trifluoromethyl)pyridazin-3-yl)oxy)phenyl)pyrimidine-4-carboxamide], the concentration for half-maximal inhibition (IC50) is more than 20 µM.
The same measure, in the same setting: to `NC(=O)c1cc(N[C@H]2CCNC2=O)nc(-c2ccc(Oc3ccc(OCC(F)(F)F)nn3)cc2)n1` [compound 153, (S)-6-((2-oxopyrrolidin-3-yl)amino)-2-(4-((6-(2,2,2-trifluoroethoxy)pyridazin-3-yl)oxy)phenyl)pyrimidine-4-carboxamide] belongs 1.13 µM.
In the case of `NC(=O)c1cc(N[C@H]2CCNC2=O)nc(N2C3CCC2CC(Oc2ccc(C(F)(F)F)cc2-c2ccncc2)C3)n1` (stereo partly drawn) [compound 154, 6-(((S)-2-oxopyrrolidin-3-yl)amino)-2-(3-(2-(pyridin-4-yl)-4-(trifluoromethyl)phenoxy)-8-azabicyclo[3.2.1]octan-8-yl)pyrimidine-4-carboxamide], the IC50 was found to be 0.13 µM.
On the same count and under the same terms, to `C[C@H](Nc1cc(C(N)=O)nc(N2C3CCC2CC(Oc2ccc(C(F)(F)F)cc2-c2ccncc2)C3)n1)C(N)=O` (stereo partly drawn) [compound 155, 6-(((S)-1-amino-1-oxopropan-2-yl)amino)-2-(3-(2-(pyridin-4-yl)-4-(trifluoromethyl)phenoxy)-8-azabicyclo[3.2.1]octan-8-yl)pyrimidine-4-carboxamide] belongs 4.1 µM; to `NC(=O)c1cc(N[C@H]2CCNC2=O)nc(N2C3CCC2CC(Oc2ccc(C(F)(F)F)cc2-c2cccnc2)C3)n1` (stereo partly drawn) [compound 156], 1.77 µM; to `O=C(O)c1cc(N[C@H]2CCNC2=O)nc(-c2ccc(Oc3ccc(C(F)(F)F)cn3)cc2)n1` [compound 157, (S)-6-((2-oxopyrrolidin-3-yl)amino)-2-(4-((5-(trifluoromethyl)pyridin-2-yl)oxy)phenyl)pyrimidine-4-carboxylic acid], more than 20 µM.
In the case of `NC(=O)c1cc(N[C@H]2CCNC2=O)nc(-c2ccc(Oc3ccc(F)cc3)cc2CN2CCCCC2)n1` [compound 158, (S)-2-(4-(4-fluorophenoxy)-2-(piperidin-1-ylmethyl)phenyl)-6-((2-oxopyrrolidin-3-yl)amino)pyrimidine-4-carboxamide], the IC50 came to 0.89 µM.
On the same count and under the same terms, the same measure for `NC(=O)c1cc(N[C@H]2CCNC2=O)nc(N2C3CCC2CC(Oc2ccc(F)cc2)C3)n1` (stereo partly drawn) [compound 159, 2-(3-(4-fluorophenoxy)-8-azabicyclo[3.2.1]octan-8-yl)-6-(((S)-2-oxopyrrolidin-3-yl)amino)pyrimidine-4-carboxamide]: 1.29 µM; for `NC(=O)c1cc(N[C@H]2CCNC2=O)nc(-c2ccc(Oc3ccc(F)cc3)cc2CN2CCCC2)n1` [compound 160, (S)-2-(4-(4-fluorophenoxy)-2-(pyrrolidin-1-ylmethyl)phenyl)-6-((2-oxopyrrolidin-3-yl)amino)pyrimidine-4-carboxamide]: 6.67 µM; for `C[C@H](Nc1cc(C(N)=O)nc(N2C3CCC2CC(Oc2ccc(F)cc2)C3)n1)C(N)=O` (stereo partly drawn) [compound 161, 6-(((S)-1-amino-1-oxopropan-2-yl)amino)-2-(3-(4-fluorophenoxy)-8-azabicyclo[3.2.1]octan-8-yl)pyrimidine-4-carboxamide]: 3.24 µM.
Take `NC(=O)c1cc(N[C@H]2CCNC2=O)nc(-c2ccc(C(=O)c3ccc(C(F)(F)F)cn3)cc2)n1` [compound 162, (S)-6-((2-oxopyrrolidin-3-yl)amino)-2-(4-(5-(trifluoromethyl)picolinoyl)phenyl)pyrimidine-4-carboxamide]: the IC50 stood at 1.9 µM.
On to `NC(=O)c1cc(N[C@H]2CCNC2=O)nc(-c2ccc(Oc3ccc(F)cc3)cc2CNC2CC2)n1` [compound 163, (S)-2-(2-((cyclopropylamino)methyl)-4-(4-fluorophenoxy)phenyl)-6-((2-oxopyrrolidin-3-yl)amino)pyrimidine-4-carboxamide], for which the IC50 stood at 1.43 µM.
`NC(=O)c1cc(N[C@H]2CCNC2=O)nc(-c2ccc(Oc3ccc(F)cc3)cc2Cn2cncn2)n1` [compound 164, (S)-2-(2-((1H-1,2,4-triazol-1-yl)methyl)-4-(4-fluorophenoxy)phenyl)-6-((2-oxopyrrolidin-3-yl)amino)pyrimidine-4-carboxamide]: the IC50 was 1.45 µM.
The same measure, in the same setting: the same measure for `NC(=O)c1cc(N[C@H]2CCNC2=O)nc(-c2ccc(Oc3cnc(C4CC4)cn3)cc2)n1` [compound 165, (S)-2-(4-((5-cyclopropylpyrazin-2-yl)oxy)phenyl)-6-((2-oxopyrrolidin-3-yl)amino)pyrimidine-4-carboxamide]: 1.19 µM; for `NC(=O)c1cc(N[C@H]2CCNC2=O)nc(Oc2ccc(Oc3ccc(C(F)(F)F)cn3)cc2)n1` [compound 166, (S)-6-((2-oxopyrrolidin-3-yl)amino)-2-(4-((5-(trifluoromethyl)pyridin-2-yl)oxy)phenoxy)pyrimidine-4-carboxamide]: 3.9 µM; for `NC(=O)c1cc(N[C@H]2CCNC2=O)nc(-c2ccc(Oc3ccc(F)cc3)cc2CN2CCC2)n1` [compound 167, (S)-2-(2-(azetidin-1-ylmethyl)-4-(4-fluorophenoxy)phenyl)-6-((2-oxopyrrolidin-3-yl)amino)pyrimidine-4-carboxamide]: more than 20 µM.
In the case of `NC(=O)c1cc(N[C@H]2CCNC2=O)nc(-c2ccc(Oc3ccc(C(F)(F)F)cc3CN3CCC3)cc2)n1` [compound 168, (S)-2-(4-(2-(azetidin-1-ylmethyl)-4-(trifluoromethyl)phenoxy)phenyl)-6-((2-oxopyrrolidin-3-yl)amino)pyrimidine-4-carboxamide], the IC50 is 1.73 µM.
Regarding `NC(=O)c1cc(N[C@H]2CCNC2=O)nc(-c2ccc(Oc3ccc(C(F)(F)F)cc3CN3CCCC3)cc2)n1` [compound 169, (S)-6-((2-oxopyrrolidin-3-yl)amino)-2-(4-(2-(pyrrolidin-1-ylmethyl)-4-(trifluoromethyl)phenoxy)phenyl) pyrimidine-4-carboxamide], the 50% inhibitory concentration (IC50) is 0.74 µM.
